ChEMBL document CHEMBL3217543, “Synthesis and biological activity evaluation of N-protected isatin derivatives as inhibitors of ICAM-1 expression on human endothelial cells” (Medchemcomm, 2011)

Key:
[1] = Cytotoxicity against HUVEC assessed as cell viability at 100 uM after 24 hrs by MTT assay; format: cell-based; details: human, HUVEC cells; read-out: Activity
HUVEC [2] = experiment: Antiinflammatory activity in HUVEC assessed as inhibition of TNFalpha-induced ICAM1 expression at 100 uM pretreated for 2 hrs followed by TNFalpha challenge measured after 16 hrs by cell-ELISA; format: functional; details: Homo sapiens
HUVEC [3] = experiment: Antiinflammatory activity in HUVEC assessed as inhibition of TNFalpha-induced ICAM1 expression pretreated for 2 hrs followed by TNFalpha challenge measured after 16 hrs by cell-ELISA; format: functional, cell-based; details: Homo sapiens
HUVEC [4] = experiment: Antiinflammatory activity in HUVEC assessed as inhibition of TNFalpha-induced ICAM1 expression measured after 6 hrs by FACS flow cytometry; format: functional, cell-based; details: Homo sapiens
HUVEC [5] = experiment: Antiinflammatory activity in HUVEC assessed as inhibition of TNFalpha-induced ICAM1 expression preincubated for 0.5 to 6 hrs followed by TNFalpha challenge measured after 4 hrs by immunostaining assay; format: functional, cell-based; details: Homo sapiens
HUVEC [6] = experiment: Antiinflammatory activity in HUVEC assessed as inhibition of LPS-induced ICAM1 expression by cell-ELISA; format: functional, cell-based; details: Homo sapiens
HUVEC [7] = experiment: Antiinflammatory activity in HUVEC assessed as inhibition of TNFalpha-induced ICAM1 expression at 100 uM pre-treated before TNFalpha addition by cell-ELISA; format: functional, cell-based; details: Homo sapiens, TDE = time-dependent effect

Q: Which viability at 24 h, 100 µM [1] does the source give for `CCOC(=O)/C=C1/C(=O)N(CC(=O)OCC)c2ccccc21` here?
A: 98%

Q: What about the inhibition at 100 µM (HUVEC [2]) of the same compound?
A: 74%

Q: And the IC50 (HUVEC [3])?
A: 55 µM

Q: Which viability at 24 h, 100 µM [1] does the source give for `CCOC(=O)/C=C1/C(=O)N(C(=O)OC)c2ccc(F)cc21` here?
A: 97%

Q: And the inhibition at 100 µM (HUVEC [2])?
A: 61%

Q: And the IC50 (HUVEC [3])?
A: 70 µM

Q: For `CCOC(=O)/C=C1/C(=O)N(C(=O)OCC)c2ccc(Cl)cc21`, which viability at 24 h, 100 µM [1] is on record?
A: 97%

Q: And the inhibition at 100 µM (HUVEC [2])?
A: 83%

Q: What about the IC50 (HUVEC [3]) of the same compound?
A: 30 µM

Q: For `CCOC(=O)/C=C1/C(=O)Nc2ccc(Cl)cc21`, which viability at 24 h, 100 µM [1] is on record?
A: 96%

Q: What about the inhibition at 100 µM (HUVEC [2]) of the same compound?
A: 56%

Q: What about the IC50 (HUVEC [3]) of the same compound?
A: 100 µM

Q: Which viability at 24 h, 100 µM [1] does the source give for `CCOC(=O)/C=C1/C(=O)N(C(=O)OC)c2ccccc21` here?
A: 98%

Q: What about the inhibition at 100 µM (HUVEC [2]) of the same compound?
A: 57%

Q: What about the IC50 (HUVEC [3]) of the same compound?
A: 78 µM

Q: Which viability at 24 h, 100 µM [1] does the source give for `CCOC(=O)/C=C1/C(=O)N(CC(=O)OC)c2ccc(F)cc21` here?
A: 96%

Q: What about the inhibition at 100 µM (HUVEC [2]) of the same compound?
A: 52%

Q: And the IC50 (HUVEC [3])?
A: 75 µM

Q: Which viability at 24 h, 100 µM [1] does the source give for `CCOC(=O)/C=C1/C(=O)Nc2ccc(Br)cc21` here?
A: 97%

Q: And the inhibition at 100 µM (HUVEC [2])?
A: 58%

Q: What about the IC50 (HUVEC [3]) of the same compound?
A: 100 µM

Q: Which viability at 24 h, 100 µM [1] does the source give for `CCOC(=O)/C=C1/C(=O)N(CC(=O)OC)c2ccccc21` here?
A: 97%

Q: What about the inhibition at 100 µM (HUVEC [2]) of the same compound?
A: 58%

Q: What about the IC50 (HUVEC [3]) of the same compound?
A: 70 µM

Q: What does the source list for `CCOC(=O)/C=C1/C(=O)N(C(=O)OCC)c2ccc(Br)cc21`?
A: viability at 24 h, 100 µM [1]: 98%; inhibition at 100 µM (HUVEC [2]): 91%; IC50 (HUVEC [3]): 15 µM

Q: With `CCOC(=O)/C=C1/C(=O)N(CC(=O)OC)c2ccc(Cl)cc21` as the compound, how does the viability at 24 h, 100 µM [1] read?
A: 97%

Q: What about the inhibition at 100 µM (HUVEC [2]) of the same compound?
A: 67%

Q: And the IC50 (HUVEC [3])?
A: 40 µM

Q: For `CCOC(=O)/C=C1/C(=O)N(C(=O)OC)c2ccc(Cl)cc21`, which viability at 24 h, 100 µM [1] is on record?
A: 96%

Q: What about the inhibition at 100 µM (HUVEC [2]) of the same compound?
A: 77%

Q: What about the IC50 (HUVEC [3]) of the same compound?
A: 40 µM

Q: Which viability at 24 h, 100 µM [1] does the source give for `CCOC(=O)/C=C1/C(=O)N(C(=O)OCC)c2ccccc21` here?
A: 95%

Q: What about the inhibition at 100 µM (HUVEC [2]) of the same compound?
A: 66%

Q: What about the IC50 (HUVEC [3]) of the same compound?
A: 50 µM

Q: Which results are given for `CCOC(=O)/C=C1/C(=O)N(C(=O)OCC)c2ccc(F)cc21`?
A: viability at 24 h, 100 µM [1]: 96%; inhibition at 100 µM (HUVEC [2]): 72%; IC50 (HUVEC [3]): 53 µM

Q: With `CCOC(=O)/C=C1/C(=O)N(CC(=O)OCC)c2ccc(F)cc21` as the compound, how does the viability at 24 h, 100 µM [1] read?
A: 97%

Q: And the inhibition at 100 µM (HUVEC [2])?
A: 63%

Q: What about the IC50 (HUVEC [3]) of the same compound?
A: 40 µM

Q: Which IC50 (HUVEC [4]) does the source give for `CC(=O)Oc1ccccc1C(=O)O` [ASPIRIN] here?
A: 5000 µM

Q: For `CC(=O)N[C@@H](CS)C(=O)O` [ACETYLCYSTEINE], which IC50 (HUVEC [5]) is on record?
A: 10000 µM

Q: Which results are given for `CCOC(=O)/C=C1/C(=O)N(C(=O)OC)c2ccc(Br)cc21`?
A: viability at 24 h, 100 µM [1]: 98%; inhibition at 100 µM (HUVEC [2]): 88%; IC50 (HUVEC [3]): 25 µM

Q: For `O=C(O)Cc1ccccc1Nc1c(Cl)cccc1Cl` [DICLOFENAC], which IC50 (HUVEC [6]) is on record?
A: 750 µM

Q: Which viability at 24 h, 100 µM [1] does the source give for `CCOC(=O)/C=C1/C(=O)Nc2ccc(F)cc21` here?
A: 95%

Q: What about the inhibition at 100 µM (HUVEC [2]) of the same compound?
A: 31%

Q: And the IC50 (HUVEC [3])?
A: > 100 µM

Q: For `CCOC(=O)/C=C1/C(=O)Nc2ccccc21`, which viability at 24 h, 100 µM [1] is on record?
A: 96%

Q: And the inhibition at 100 µM (HUVEC [2])?
A: 40%

Q: What about the IC50 (HUVEC [3]) of the same compound?
A: > 100 µM

Q: Which viability at 24 h, 100 µM [1] does the source give for `CCOC(=O)/C=C1/C(=O)N(CC(=O)OC)c2ccc(Br)cc21` here?
A: 99%

Q: And the inhibition at 100 µM (HUVEC [2])?
A: 81%

Q: What about the IC50 (HUVEC [3]) of the same compound?
A: 25 µM

Q: Which results are given for `CCOC(=O)/C=C1/C(=O)N(CC(=O)OCC)c2ccc(Br)cc21`?
A: viability at 24 h, 100 µM [1]: 97%; inhibition (HUVEC [2]): Dose-dependent effect; inhibition at 100 µM (HUVEC [2]): 93%; IC50 (HUVEC [3]): 10 µM; inhibition (HUVEC [7]): tde

Q: With `CCOC(=O)/C=C1/C(=O)N(CC(=O)OCC)c2ccc(Cl)cc21` as the compound, how does the viability at 24 h, 100 µM [1] read?
A: 96%

Q: What about the inhibition at 100 µM (HUVEC [2]) of the same compound?
A: 74%

Q: And the IC50 (HUVEC [3])?
A: 25 µM
